In patent US20250236608A1, “EGFR INHIBITORS” (Blueprint Medicines Corporation, priority 2022, published 2025):

Legend:
[1] = target: EGFR (d746-750) (Homo sapiens (Human), UniProt P00533, DEL746-750); experiment: Biochemical EGFR inhibition assay, EGFR (d746-750); conditions: Caliper mobility shift; 1.0 mM ATP or ATP Km; read-out: Enz EGFR_Exon19-del746-750 IC50
[2] = target: pEGFR (Tyr1068) in PC-9 cells (Ex19Del) (Homo sapiens (Human), UniProt P00533, DEL746-750); experiment: PC-9 pEGFR AlphaLISA assay; type: cell-based; conditions: 4 hours incubation, p-EGFR (Tyr1068) AlphaLISA, read-out: Ext pEGFR_PC-9 Ex19Del IC50
Outline: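 Readout: AlphaLISA SureFire Ultra signal in cell lysates, with acceptor beads for 1.5-2 h and donor beads overnight at room temperature in the dark. Beforehand, unstimulated cells in 10% FBS medium received compounds (10 points, 4-fold steps) for 4 h at 37° C. IC50 came from percent inhibition curves.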

[3] = target: EGFR L858R (Homo sapiens (Human), UniProt P00533, L858R); experiment: Biochemical EGFR inhibition assay, EGFR L858R; conditions: Caliper mobility shift; 1.0 mM ATP or ATP Km; read-out: Enz EGFR_L858R IC50
EGFR L858R, sequence (P00533 25-1210 L858R): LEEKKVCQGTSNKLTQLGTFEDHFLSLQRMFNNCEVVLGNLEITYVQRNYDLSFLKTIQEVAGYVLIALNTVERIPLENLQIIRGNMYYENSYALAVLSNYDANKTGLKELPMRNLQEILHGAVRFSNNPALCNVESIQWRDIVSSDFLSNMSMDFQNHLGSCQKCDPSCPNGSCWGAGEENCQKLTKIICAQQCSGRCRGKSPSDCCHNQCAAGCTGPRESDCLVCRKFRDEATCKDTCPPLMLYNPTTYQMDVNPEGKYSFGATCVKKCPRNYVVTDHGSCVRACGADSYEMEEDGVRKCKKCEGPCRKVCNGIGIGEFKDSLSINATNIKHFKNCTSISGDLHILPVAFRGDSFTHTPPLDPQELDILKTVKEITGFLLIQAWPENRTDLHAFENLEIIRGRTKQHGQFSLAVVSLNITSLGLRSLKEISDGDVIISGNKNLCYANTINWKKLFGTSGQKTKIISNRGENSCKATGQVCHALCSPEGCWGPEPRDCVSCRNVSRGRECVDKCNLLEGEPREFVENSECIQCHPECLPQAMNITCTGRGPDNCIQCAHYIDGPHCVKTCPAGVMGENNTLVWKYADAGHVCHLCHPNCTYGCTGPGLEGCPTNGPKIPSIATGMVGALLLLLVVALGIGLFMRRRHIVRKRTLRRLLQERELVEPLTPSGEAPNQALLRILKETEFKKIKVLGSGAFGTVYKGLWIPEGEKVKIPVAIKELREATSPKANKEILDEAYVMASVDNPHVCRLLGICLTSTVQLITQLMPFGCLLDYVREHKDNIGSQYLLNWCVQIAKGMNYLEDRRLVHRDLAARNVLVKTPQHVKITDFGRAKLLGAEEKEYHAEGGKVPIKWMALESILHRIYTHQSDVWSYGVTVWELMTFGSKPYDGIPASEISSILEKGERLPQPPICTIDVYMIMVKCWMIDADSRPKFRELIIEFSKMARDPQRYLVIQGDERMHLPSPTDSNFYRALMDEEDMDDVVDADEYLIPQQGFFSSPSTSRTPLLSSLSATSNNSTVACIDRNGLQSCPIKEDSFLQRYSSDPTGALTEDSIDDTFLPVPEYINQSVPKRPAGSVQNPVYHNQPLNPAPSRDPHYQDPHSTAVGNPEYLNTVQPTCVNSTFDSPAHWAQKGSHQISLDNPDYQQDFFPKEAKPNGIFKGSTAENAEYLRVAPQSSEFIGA

pEGFR (Tyr1068) in PC-9 cells (Ex19Del), sequence (P00533 other isoform, or with tags, fused parts or gaps del 746-750): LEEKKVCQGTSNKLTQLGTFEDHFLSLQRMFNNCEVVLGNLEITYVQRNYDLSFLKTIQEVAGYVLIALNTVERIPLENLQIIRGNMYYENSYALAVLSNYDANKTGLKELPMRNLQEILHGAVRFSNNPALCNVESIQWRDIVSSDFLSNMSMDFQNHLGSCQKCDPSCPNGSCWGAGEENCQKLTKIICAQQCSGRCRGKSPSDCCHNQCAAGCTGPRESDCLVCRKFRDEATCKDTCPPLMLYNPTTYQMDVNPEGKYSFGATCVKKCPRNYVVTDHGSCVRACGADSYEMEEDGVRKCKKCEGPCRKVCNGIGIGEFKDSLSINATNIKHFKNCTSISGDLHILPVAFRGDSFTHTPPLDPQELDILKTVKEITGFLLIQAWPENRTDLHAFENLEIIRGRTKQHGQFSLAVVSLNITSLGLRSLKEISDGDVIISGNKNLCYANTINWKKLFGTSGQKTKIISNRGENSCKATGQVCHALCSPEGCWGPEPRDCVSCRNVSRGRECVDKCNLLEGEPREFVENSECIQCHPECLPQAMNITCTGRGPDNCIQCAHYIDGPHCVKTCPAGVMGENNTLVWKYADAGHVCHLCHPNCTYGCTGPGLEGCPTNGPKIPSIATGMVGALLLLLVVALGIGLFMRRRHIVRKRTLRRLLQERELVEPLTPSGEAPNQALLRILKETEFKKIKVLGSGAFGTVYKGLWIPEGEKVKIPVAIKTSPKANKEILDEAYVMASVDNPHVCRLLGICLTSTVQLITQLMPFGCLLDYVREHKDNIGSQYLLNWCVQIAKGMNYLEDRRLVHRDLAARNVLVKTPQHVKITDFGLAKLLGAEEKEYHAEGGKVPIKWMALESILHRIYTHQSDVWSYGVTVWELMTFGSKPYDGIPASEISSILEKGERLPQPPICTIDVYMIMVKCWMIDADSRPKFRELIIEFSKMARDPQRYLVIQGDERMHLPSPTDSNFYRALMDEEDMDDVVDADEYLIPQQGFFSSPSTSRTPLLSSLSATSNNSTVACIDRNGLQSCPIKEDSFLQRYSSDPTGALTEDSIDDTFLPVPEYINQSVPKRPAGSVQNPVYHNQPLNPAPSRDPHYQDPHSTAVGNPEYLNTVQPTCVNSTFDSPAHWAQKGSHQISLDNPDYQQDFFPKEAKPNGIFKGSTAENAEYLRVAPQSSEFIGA
EGFR (d746-750), sequence (P00533 other isoform, or with tags, fused parts or gaps del 1-694/del 746-750 limits assumed): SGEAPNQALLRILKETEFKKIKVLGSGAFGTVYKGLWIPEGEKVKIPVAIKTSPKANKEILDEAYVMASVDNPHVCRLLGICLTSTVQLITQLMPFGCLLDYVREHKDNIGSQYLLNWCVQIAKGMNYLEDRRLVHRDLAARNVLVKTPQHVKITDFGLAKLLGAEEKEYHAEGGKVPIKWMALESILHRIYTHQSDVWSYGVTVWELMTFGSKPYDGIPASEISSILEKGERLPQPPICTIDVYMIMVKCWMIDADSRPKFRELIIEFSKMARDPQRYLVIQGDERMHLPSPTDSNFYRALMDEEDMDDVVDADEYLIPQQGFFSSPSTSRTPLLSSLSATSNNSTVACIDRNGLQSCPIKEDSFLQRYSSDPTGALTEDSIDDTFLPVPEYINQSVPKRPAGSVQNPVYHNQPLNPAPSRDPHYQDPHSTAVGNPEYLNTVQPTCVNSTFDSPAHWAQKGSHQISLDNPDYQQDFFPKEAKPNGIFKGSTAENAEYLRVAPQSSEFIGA

Row | SMILES | IC50 [1] [nM] | IC50 [2] [nM] | IC50 [3] [nM]
1 | COc1cc2ncnc(-c3cn(C)nc3-c3ccc(F)cc3F)c2nc1NC(=O)[C@@]12C[C@@H]1CN(C)C2 (single isomer, unassigned) [Example 423, (1S,5S)—N-(4-(3-(2,4-difluorophenyl)-1-methyl-1H-pyrazol-4-yl)-7-methoxypyrido[3,2-d]pyrimidin-6-yl)-3-methyl-3-azabicyclo[3.1.0]hexane-1-carboxamide or (1R,5R)—N-(4-(3-(2,4-difluorophenyl)-1-methyl-1H-pyrazol-4-yl)-7-methoxypyrido[3,2-d]pyrimidin-6-yl)-3-methyl-3-azabicyclo[3.1.0]hexane-1-carboxamide] | 1.6 | 3.8 | 4.1
2 | COc1cc2ncnc(-c3cn(C)nc3-c3ccccc3)c2nc1OC(=O)N1CCN(C)C[C@@H]1C [Example 55, 7-methoxy-4-(1-methyl-3-phenyl-1H-pyrazol-4-yl)pyrido[3,2-d]pyrimidin-6-yl (S)-2,4-dimethylpiperazine-1-carboxylate] | 2 | 3.6 | 5
3 | COc1cc2ncnc(-c3cn(C)nc3-c3ccccc3)c2nc1NC(=O)[C@]12CN(C)C[C@H]1C2(F)F (single isomer, unassigned) [Example 416, (1R,5S)-6,6-difluoro-N-(7-methoxy-4-(1-methyl-3-phenyl-1H-pyrazol-4-yl)pyrido[3,2-d]pyrimidin-6-yl)-3-methyl-3-azabicyclo[3.1.0]hexane-1-carboxamide or (1S,5R)-6,6-difluoro-N-(7-methoxy-4-(1-methyl-3-phenyl-1H-pyrazol-4-yl)pyrido[3,2-d]pyrimidin-6-yl)-3-methyl-3-azabicyclo[3.1.0]hexane-1-carboxamide] | 1 | 0.8 | 1.8
4 | Cn1cc(-c2ccc3c(-c4c[nH]nc4-c4ccccc4F)ncnc3c2)cn1 [Example 443, 4-[3-(2-fluorophenyl)-1H-pyrazol-4-yl]-7-(1-methyl-1H-pyrazol-4-yl)quinazoline] | 0.4 | 0.3 | 0.8
5 | CCC(=O)Nc1cc2c(-c3cn(C)nc3-c3c(F)cccc3F)ncnc2cc1-c1ccn(C)n1 [Example 453, N-(4-(3-(2,6-difluorophenyl)-1-methyl-1H-pyrazol-4-yl)-7-(1-methyl-1H-pyrazol-3-yl)quinazolin-6-yl)propionamide] | 0.7 | 0.4 | 1.3
6 | [2H]C([2H])([2H])n1cc(-c2ncnc3cc(OC)c(NC(=O)C4(C(F)(F)F)CC4)nc23)c(-c2ccccc2)n1 [Example 320, N-(7-methoxy-4-(1-(methyl-d3)-3-phenyl-1H-pyrazol-4-yl)pyrido[3,2-d]pyrimidin-6-yl)-1-(trifluoromethyl)cyclopropane-1-carboxamide] | 0.6 | 1.1 | 2
7 | COc1cc2ncnc(-c3cn(C)nc3-c3ccccc3)c2cc1NC(=O)c1ccc(C)nc1 [Example 323, N-(7-methoxy-4-(1-methyl-3-phenyl-1H-pyrazol-4-yl)quinazolin-6-yl)-6-methylnicotinamide] | 1.6 | 3.9 | 3.3
8 | CCOc1cc2ncnc(-c3cn(CC)nc3-c3ccccc3)c2cc1[C@@H](C)O (single isomer, unassigned) [Example 108, (R)-1-(7-ethoxy-4-(1-ethyl-3-phenyl-1H-pyrazol-4-yl)quinazolin-6-yl)ethan-1-ol or (S)-1-(7-ethoxy-4-(1-ethyl-3-phenyl-1H-pyrazol-4-yl)quinazolin-6-yl)ethan-1-ol] | 0.9 | 2.7 | 1.3
9 | COc1cc2ncnc(-c3cn(C)nc3-c3ccccc3)c2cc1[C@@H](C)O (single isomer, unassigned) [Example 115, (R)-1-(7-methoxy-4-(1-methyl-3-phenyl-1H-pyrazol-4-yl)quinazolin-6-yl)ethan-1-ol or (S)-1-(7-methoxy-4-(1-methyl-3-phenyl-1H-pyrazol-4-yl)quinazolin-6-yl)ethan-1-ol] | 1.2 | 10.6 | 2.3
10 | COc1cc2ncnc(-c3cn(C)nc3-c3ccccc3F)c2cc1OC(=O)N1CCOC[C@@H]1C [Example 74, 4-(3-(2-fluorophenyl)-1-methyl-1H-pyrazol-4-yl)-7-methoxyquinazolin-6-yl (S)-3-methylmorpholine-4-carboxylate] | 662 | 4.5 | 829
11 | COc1cc2ncnc(-c3c[nH]nc3-c3ccc(F)cc3)c2nc1NC(=O)[C@]12COC[C@H]1C2 [Example 467, (1S,5S)—N-{4-[3-(4-fluorophenyl)-1H-pyrazol-4-yl]-7-methoxypyrido[3,2-d]pyrimidin-6-yl}-3-oxabicyclo[3.1.0]hexane-1-carboxamide] | 1.3 | 5.3 | 5.5
12 | COc1cc2ncnc(-c3cn(CC(F)F)nc3-c3ccccc3)c2cc1C1(O)CCOCC1 [Example 127, 4-(4-(1-(2,2-difluoroethyl)-3-phenyl-1H-pyrazol-4-yl)-7-methoxyquinazolin-6-yl)tetrahydro-2H-pyran-4-ol] | 1.4 | 2.6 | 2.6
13 | COc1cc2ncnc(-c3cn(C)nc3-c3ccccc3)c2nc1-c1ccc2c(c1)CNC2=O [Example 152, 5-(7-methoxy-4-(1-methyl-3-phenyl-1H-pyrazol-4-yl)pyrido[3,2-d]pyrimidin-6-yl) isoindolin-1-one] | 1 | 1.9 | 2
14 | CN1CCC(n2cc(-c3ccc4c(-c5cn(C)nc5-c5ccccc5)ncnc4c3)cn2)CC1 [Example 438, 4-(1-methyl-3-phenyl-1H-pyrazol-4-yl)-7-(1-(1-methylpiperidin-4-yl)-1H-pyrazol-4-yl)quinazoline] | 0.8 | 0.3 | 1.2
15 | CCn1cc(-c2ncnc3cc(OC)c([C@@H](C)O)cc23)c(-c2ccccc2)n1 (single isomer, unassigned) [Example 106, (R)-1-(4-(1-ethyl-3-phenyl-1H-pyrazol-4-yl)-7-methoxyquinazolin-6-yl)ethan-1-ol or (S)-1-(4-(1-ethyl-3-phenyl-1H-pyrazol-4-yl)-7-methoxyquinazolin-6-yl)ethan-1-ol] | 1.8 | 10.9 | 3.4
16 | COc1cc2ncnc(-c3cn(C)nc3-c3ccccc3)c2cc1NC(=O)c1ccnn1C(C)C [Example 218, 1-isopropyl-N-(7-methoxy-4-(1-methyl-3-phenyl-1H-pyrazol-4-yl)quinazolin-6-yl)-1H-pyrazole-5-carboxamide] | 1 | 2.7 | 2.1
17 | COc1cc2ncnc(-c3cn(C)nc3-c3ccccc3)c2cc1NC(=O)[C@H]1CCCN1C (single isomer, unassigned) [Example 242, (R)—N-(7-methoxy-4-(1-methyl-3-phenyl-1H-pyrazol-4-yl)quinazolin-6-yl)-1-methylpyrrolidine-2-carboxamide or (S)—N-(7-methoxy-4-(1-methyl-3-phenyl-1H-pyrazol-4-yl)quinazolin-6-yl)-1-methylpyrrolidine-2-carboxamide] | 2.1 | 6.6 | 7
18 | COc1cc2ncnc(-c3cn(C)nc3-c3ccccc3)c2cc1[C@@H]1CN(C)CCO1 [Example 130, (R)-2-(7-methoxy-4-(1-methyl-3-phenyl-1H-pyrazol-4-yl)quinazolin-6-yl)-4-methylmorpholine] | 5.2 | 16.1 | 21.5
19 | COc1cc2ncnc(-c3cn(CC(F)F)nc3-c3ccccc3)c2cc1[C@H](C)O (single isomer, unassigned) [Example 101, (S)-1-(4-(1-(2,2-difluoroethyl)-3-phenyl-1H-pyrazol-4-yl)-7-methoxyquinazolin-6-yl)ethan-1-ol or (R)-1-(4-(1-(2,2-difluoroethyl)-3-phenyl-1H-pyrazol-4-yl)-7-methoxyquinazolin-6-yl)ethan-1-ol] | 1.9 | 5.7 | 3.2
20 | COc1cc2ncnc(-c3cn(C)nc3-c3ccccc3)c2cc1O[C@@H]1CCOC1 [Example 12, (R)-7-methoxy-4-(1-methyl-3-phenyl-1H-pyrazol-4-yl)-6-((tetrahydrofuran-3-yl)oxy)quinazoline] | 1.3 | 5.6 | 2.8
21 | COc1cc2ncnc(-c3cn(C)nc3-c3ccc(F)cc3)c2cc1NC(=O)c1scnc1C [Example 304, N-(4-(3-(4-fluorophenyl)-1-methyl-1H-pyrazol-4-yl)-7-methoxyquinazolin-6-yl)-4-methylthiazole-5-carboxamide] | 1 | 1.2 | 1.8
22 | COc1cc2ncnc(-c3cn(C)nc3-c3ccccc3)c2nc1O[C@@H](C)c1nnnn1C [Example 45, (S)-7-methoxy-6-(1-(1-methyl-1H-tetrazol-5-yl)ethoxy)-4-(1-methyl-3-phenyl-1H-pyrazol-4-yl)pyrido[3,2-d]pyrimidine] | 3.6 | 14.3 | 9.4
23 | COc1cc2ncnc(-c3cn(C4COC4)nc3-c3ccccc3)c2cc1OC(=O)N1CCOC[C@@H]1C [Example 68, 7-methoxy-4-(1-(oxetan-3-yl)-3-phenyl-1H-pyrazol-4-yl)quinazolin-6-yl (S)-3-methylmorpholine-4-carboxylate] | 2.7 | 3 | 6.3
